Assay [1] concerns HIV-HXB2 in MT4 cells. The assay can be described thus: Antiviral assay: protection of HIV-infected MT4 cells from cell death (MTT). Type of assay: cell-based. Particulars: MT4 cells infected with HIV-HXB2, 5 days, concentration preserving cell viability by 50%. How it is done: Methods 20: 309-321]. The method is based on the ability of compounds to protect HIV-infected T lymphoblastoid cells (MT4 cells) from cell-death mediated by the infection. The endpoint of the assay was calculated as the concentration of compound at which the cell viability of the culture was preserved by 50% (‘50% inhibitory concentration’, IC50). The cell viability of a culture was determined by the uptake of soluble, yellow 3-[4,5-dimethylthiazol-2-yl]-2,5-diphenyltetrazolium bromide (MTT) and its reduction to a purple insoluble formazan salt. After solubilization, spectrophotometric methods were employed to measure the amount of formazan product. MT4 cells were prepared to be in logarithmic-phase growth and a total of 2×10^6 cells infected with either the wild type or site directed mutant clones of HIV-HXB2 at a multiplicity of approximately 0.0001 infectious units of virus per cell in a total volume of between 200-500 μl. The cells were incubated with virus for one hour at 37° C. then washed in 0.01 M phosphate buffered saline, pH 7.2, and resuspensed in culture medium for incubation in culture with serial dilutions of test compound. The culture medium used was RPMI 1640 without phenol red, supplemented with penicillin, streptomycin, L-glutamine and 10% fetal calf serum (GM 10).
Test compounds were prepared as 2 mM solutions in dimethyl sulphoxide (DMSO). Four replicate, serial 2-fold dilutions in GM10 were then prepared and 50 microlitre amounts placed in 96-well plates over a final concentration range of 625-1.22 nm. Fifty microlitres GM10 and 3.75×10^4 infected cells were then added to each well. Control cultures containing no cells (blank), uninfected cells (100% viability; 4 replicates) and infected cells without compound (total virus-mediated cell death; 4 replicates) were also prepared. The cultures were then incubated at 37° C. in a humidified atmosphere of 5% CO2 in air for 5 days.
A fresh solution of 5 mg/mL MTT was prepared in 0.01 M phosphate buffered saline, pH 7.2 and 20 μL added to each culture. The cultures were further incubated as before for 2 hours. They were then mixed by pipetting up and down, and 170 microlitres of Triton X-100 in acidified isopropanol (10% v/v Triton X-100 in 1:250 mixture of concentrated HCl in isopropanol) were added and the cultures were mixed again by pipetting up and down. When the formazan deposit was fully solubilised by further mixing, the absorbance (OD) of the cultures was measured at 540 nm and 690 nm wavelength (690 nm readings were used as blanks for artefacts between wells). The percent protection for each treated culture was then calculated from the equation: [formula]
The IC50 was then obtained from graph plots of percentage protection versus log10 drug concentration.

In assay [2] the target is HIV-1 protease (Human immunodeficiency virus type 1 group M subtype B, UniProt P04585). Nature of the assay: HIV protease inhibition assay (quenched fluorogenic substrate, fluorescence energy transfer). The following applies: crude HIV-1 protease from E. coli, pH 4.7, 2 hours at 37° C.
Description: HIV Protease Inhibition Assay
HIV protease inhibitory activity was assessed using an adaptation of the method of Matayoshi. et al. [Matayoshi E. D. et al (1990).
Crude HIV-1 protease was prepared from E. coli pPTΔN. Cultures were grown at 30° C. in M9 medium supplemented with 0.2% casamino acids, 100 μg/ml ampicillin and 25 μg/ml thiamine until OD600=0.5-0.6, and the temperature was raised to 42° C. to induce expression of the protease. After 1.5 hours, the cells were harvested and the pellets stored at −70° C. until required.
The protease was prepared by lysis of the cells in a French pressure cell followed by precipitation of the enzyme with ammonium sulfate at 30% saturation.
The assay buffer comprised 0.1M sodium acetate pH 4.7, 8 mM EDTA, 0.2 M NaCl.
Tubes were incubated for 2 hours at 37° C. and the reaction was terminated by the addition of 500 μl of a 2:1 mixture of DMSO: 50 mM Tricine pH 8.5. Fluorescence was measured in a fluorescence spectrophotometer, excitation λ=340 nm, emission λ=492 nm.
Setting [3] is: Human immunodeficiency virus 1, HXB2, MT4, 120 h.

The text below walks through data of patent publication US6632826B1, “Carbocyclic HIV protease inhibitors” (priority 2001, dated 2003).

Read-outs that look alike come from different tables or passages of the source.

The term IC50 denotes the point on the concentration scale where inhibition reaches its midpoint. As for `CO[C@H]1CC[C@@H](C(=O)NC(C)(C)C)C(C[C@@H](O)[C@H](Cc2ccccc2)NC(=O)[C@@H](CS(=O)(=O)c2ccc3ccccc3c2)NS(C)(=O)=O)C1` (stereo partly drawn) [Example 27, N-tert-Butyl-2-[2-hydroxy-3-[[N2-(methanesulfonyl)-S-(2-naphthyl)-D-cysteinyl]amino]-4-phenylbutyl]-4-methoxy-1-cyclohexanecarboxamide S,S-dioxide], the IC50 was determined as 8.3 nM in assay [1] (setting [3]) and 0.2 nM in assay [2] (Enzyme IC50 (nM)). The matching figures for `CC1CC(C[C@@H](O)[C@H](Cc2ccccc2)NC(=O)[C@@H](CS(=O)(=O)c2ccc3ccccc3c2)NS(C)(=O)=O)C(C(=O)NC(C)(C)C)C1` (stereo partly drawn) [Example 23, 2-{2-Hydroxy-3-[2-methanesulfonylamino-3-(naphthalene-2-sulfonyl)-propionylamino]-4-phenyl-butyl}-4-methyl-cyclopentanecarboxylic acid tert-butylamide]: 13 nM and 0.55 nM. In the same order, the values of `CO[C@H]1CC[C@@H](C(=O)NC(C)(C)C)C(C[C@@H](O)[C@H](Cc2ccccc2)NC(=O)[C@@H](CSc2ccc3ccccc3c2)NS(C)(=O)=O)C1` (stereo partly drawn) [Example 7, N-tert-Butyl-[2-hydroxy-3-[[N2-(methanesulfonyl)-S-(2-naphthyl)-D-cysteinyl]amino]-4-phenylbutyl]-4-methoxy-1-cyclohexanecarboxamide] are 35.8 nM and 0.42 nM. In the same order, the values of `COC1CCC(C[C@@H](O)[C@H](Cc2ccccc2)NC(=O)[C@@H](CSc2ccc3ccccc3c2)NS(C)(=O)=O)C(C(=O)NC(C)(C)C)C1` (stereo partly drawn) [Example 1, 2-{2-hydroxy-3-[2-methanesulfonylamino-3-(naphthalen-2-ylsulfanyl)-propionylamino]-4-phenyl-butyl}-5-methoxy-cyclohexanecarboxylic acid tert-butylamide] are 29 nM and 0.31 nM. With `COC1CCC(C[C@@H](O)[C@H](Cc2ccccc2)NC(=O)[C@@H](C[S+]([O-])c2ccc3ccccc3c2)NS(C)(=O)=O)C(C(=O)NC(C)(C)C)C1` (stereo partly drawn) [Example 14, 2-{2-Hydroxy-3-[2-methanesulfonylamino-3-(naphthalene-2-sulfinyl)-propionylamino]-4-phenyl-butyl}-5-methoxy-cyclohexanecarboxylic Acid tert-Butylamide], the IC50 in assay [1] (setting [3]) stood at 20.9 nM; in assay [2] (Enzyme IC50 (nM)), 0.2 nM. For `COC1CCC(C[C@@H](O)[C@H](Cc2ccccc2)NC(=O)[C@@H](C[S+]([O-])c2ccc3ccccc3c2)NS(C)(=O)=O)C(C(=O)NC(C)(C)C)C1` (stereo partly drawn) [Example 20, 2-{2-Hydroxy-3-[2-methanesulfonylamino-3-(naphthalene-2-sulfinyl)-propionylamino]-4-phenyl-butyl}-5-methoxy-cyclohexanecarboxylic acid tert-butylamide], the IC50 amounted to 21 nM in assay [1] and 0.2 nM in assay [2] (read-out: Enzyme IC50). Regarding `CC1CC(C[C@@H](O)[C@H](Cc2ccccc2)NC(=O)[C@@H](CSc2ccc3ccccc3c2)NS(C)(=O)=O)C(C(=O)NC(C)(C)C)C1` (stereo partly drawn) [Example 2, 2-{2-Hydroxy-3-[2-methanesulfonylamino-3-(naphthalen-2-ylsulfanyl)-propionylamino]-4-phenyl-butyl}-4-methyl-cyclopentanecarboxylic acid tert-butylamide], the figures for the IC50 in assay [1] (setting [3]) and in assay [2] (Enzyme IC50 (nM)) were 230 nM and 1.5 nM, respectively.

Regarding `COC1CCC(C[C@@H](O)[C@H](Cc2ccccc2)NC(=O)[C@@H](CS(=O)(=O)c2cccc3ccccc23)NS(C)(=O)=O)C(C(=O)NC(C)(C)C)C1` (stereo partly drawn) [Example 29, 2-{2-Hydroxy-3-[2-methanesulfonylamino-3-(naphthalene-1-sulfonyl)-propionylamino]-4-phenyl-butyl}-5-methoxy-cyclohexanecarboxylic acid tert-butylamide], the IC50 in assay [1] (setting [3]) is 73 nM; in assay [2] (Enzyme IC50 (nM)) it was 0.41 nM. As for `COC1CCC(C[C@@H](O)[C@H](Cc2ccccc2)NC(=O)[C@@H](CSc2ccc3ccccc3c2)NS(C)(=O)=O)C(C(=O)NC(C)(C)C)C1` (stereo partly drawn) [Example 10, 2-{2-Hydroxy-3-[2-methanesulfonylamino-3-(naphthalen-2-ylsulfanyl)-propionylamino]-4-phenyl-butyl}-5-methoxy-cyclohexanecarboxylic acid tert-butylamide], the IC50 in assay [1] turned out to be 28 nM; in assay [2] (Enzyme IC50 (nM)) it was 0.3 nM.

In the case of `CC1CC(C[C@@H](O)[C@H](Cc2ccccc2)NC(=O)[C@@H](C[S+]([O-])c2ccc3ccccc3c2)NS(C)(=O)=O)C(C(=O)NC(C)(C)C)C1` (stereo partly drawn) [Example 15, 2-{2-Hydroxy-3-[2-methanesulfonylamino-3-(naphthalene-2-sulfinyl)-propionylamino]-4-phenyl-butyl}-4-methyl-cyclopentanecarboxylic acid tert-butylamide], the values for the IC50 in assay [1] (setting [3]) and in assay [2] (Enzyme IC50 (nM)) were 27 nM and 1.5 nM, respectively. As to `CC(C)(C)NC(=O)C1CCCCC1C[C@@H](O)[C@H](Cc1ccccc1)NC(=O)[C@@H](C[S+]([O-])c1cccc2ccccc12)NS(C)(=O)=O` (stereo partly drawn) [Example 21, 2-{2-Hydroxy-3-[2-methanesulfonylamino-3-(naphthalene-1-sulfinyl)-propionylamino]-4-phenyl-butyl}-cyclohexanecarboxylic acid tert-butylamide], the IC50 in assay [2] (Enzyme IC50 (nM)) was 0.31 nM. Regarding `CC(C)(C)NC(=O)[C@@H]1CCCCC1C[C@@H](O)[C@H](Cc1ccccc1)NC(=O)[C@@H](CSc1cccc2ccccc12)NS(C)(=O)=O` (stereo in doubt) [Example 13, 2-{2-Hydroxy-3-[2-methanesulfonylamino-3-(naphthalen-1-ylsulfanyl)-propionylamino]-4-phenyl-butyl}-cyclohexanecarboxylic acid tert-butylamide], in assay [2] (Enzyme IC50 (nM)), the IC50 was 0.44 nM. Turning to `COC1CCC(C[C@@H](O)[C@H](Cc2ccccc2)NC(=O)[C@@H](CS(=O)(=O)c2ccc3ccccc3c2)NS(C)(=O)=O)C(C(=O)NC(C)(C)C)C1` (stereo partly drawn) [Example 30, 2-{2-Hydroxy-3-[2-methanesulfonylamino-3-(naphthalene-2-sulfonyl)-propionylamino]-4-phenyl-butyl}-5-methoxy-cyclohexanecarboxylic acid tert-butylamide], the IC50 in assay [1] (setting [3]) worked out at 173 nM; in assay [2] (Enzyme IC50 (nM)), 0.6 nM.
